# Assay results: patent US8101616B2, “Pyridine and pyrimidine derivatives as inhibitors of histone deacetylase” (Janssen Pharmaceutica N.V., priority 2006, dated 2012)
# Like-named read-outs stand apart in the source and are kept apart here.
# What was measured:
# [1] = system: A2780 ovarian carcinoma cells; assay: Antiproliferative activity on A2780 cells, MTT (C.2); type: cell-based; details: Homo sapiens, 96 h, four days of incubation, read-out: Cellular activity pIC50 C.2 (converted)
# Experimental: Cellular activity of the compounds of formula (I) was determined on A2780 tumour cells using a […] assay for cell toxicity or survival (Mosmann Tim, Journal of Immunological Methods 65: 55-63, 1983) (see example C.2).
# All compounds tested were dissolved in DMSO and further dilutions were made in culture medium. Final DMSO concentrations never exceeded 0.1% (v/v) in cell proliferation assays. Controls contained A2780 cells and DMSO without compound and blanks contained DMSO but no cells. MTT was dissolved at 5 mg/ml in PBS. A glycine buffer comprised of 0.1 M glycine and 0.1 M NaCl buffered to pH 10.5 with NaOH (1 N) was prepared (all reagents were from Merck).
# The human A2780 ovarian carcinoma cells (a kind gift from Dr. T. C. Hamilton [Fox Chase Cancer Centre, Pennsylvania, USA]) were cultured in RPMI 1640 medium supplemented with 2 mM L-glutamine, 50 μg/ml gentamicin and 10% fetal calf serum. Cells were routinely kept as monolayer cultures at 37° C. in a humidified 5% CO2 atmosphere. Cells were passaged once a week using a trypsin/EDTA solution at a split ratio of 1:40. All media and supplements were obtained from Life Technologies. Cells were free of mycoplasma contamination as determined using the Gen-Probe Mycoplasma Tissue Culture kit (supplier: BioMérieux).
# Cells were seeded in NUNC™ 96-well culture plates (Supplier: Life Technologies) and allowed to adhere to the plastic overnight. Densities used for plating were 1500 cells per well in a total volume of 200 μl medium. After cell adhesion to the plates, medium was changed and drugs and/or solvents were added to a final volume of 200 μl. Following four days of incubation, medium was replaced by 200 μl fresh medium and cell density and viability was assessed using an MTT-based assay. […] For each sample, the mean value for cell growth (in absorbance units) was expressed as a percentage of the mean value for cell growth of the control. […] Herein the effects of test compounds are expressed as pIC50 (the negative log value of the IC50-value) (see Table F-2).
# [2] = Solubility at pH 2.3, chemiluminescent nitrogen detector (C.3.b); type: physicochemical
# Experimental: The solubility of a compound measures the ability of a compound to stay in solution. In the first method, the ability of a compound to stay in aqueous solution upon dilution (see example C.3.a) is measured. DMSO-stock solutions are diluted with a single aqueous buffer solvent in different consecutive steps. In this method (C.3.a), mixtures are then scanned in the BD Gentest Solubility Scanner for the occurrence of precipitation. In a second method the solubility of a compound at different pH's can be measured with the use of a chemiluminescent nitrogen detector (see example C.3.b).
# The solubility of a compound, at pH 2.3, can also be measured with the use of a chemiluminescent nitrogen detector (see Table F-2).
# [3] = molecular target: histone deacetylase (HeLa nuclear extracts); assay: In vitro assay for inhibition of histone deacetylase with fluorescent-labelled substrate (C.1); type: biochemical; details: Fluor de Lys substrate
# Text: The in vitro assay for inhibition of histone deacetylase (see example C.1) measures the inhibition of HDAC enzymatic activity obtained with the compounds of formula (I).
# The HDAC Fluorescent Activity Assay/Drug Discovery Kit of Biomol (cat. No: AK-500-0001) was used. The HDAC Fluorescent Activity Assay is based on the Fluor de Lys (Fluorogenic Histone deAcetylase Lysyl) substrate and developer combination. The Fluor de Lys substrate, comprises an acetylated lysine side chain. Deacetylation of the substrate sensitizes the substrate so that, in the second step, treatment with the Fluor de Lys developer produces a fluorophore.
# HeLa nuclear extracts (supplier: Biomol) were incubated at 60 μg/ml with 75 μM of substrate. The Fluor de Lys substrate was added in a buffer containing 25 mM Tris, 137 mM NaCl, 2.7 mM KCl and 1 mM MgCl2.6H2O at pH 7.4. After 30 min, 1 volume of the developer was added. The fluorophore was excited with 355 nm light and the emitted light (450 nm) was be detected on a fluorometric plate reader.
# For each experiment, controls (containing HeLa nuclear extract and buffer), a blank incubation (containing buffer but no HeLa nuclear extract) and samples (containing compound dissolved in DMSO and further diluted in buffer and HeLa nuclear extract) were run in parallel. In first instance, compounds were tested at a concentration of 10^−5M. […] All sample were tested 4 times. In each test the blank value was substracted from both the control and the sample values. The control sample represented 100% of substrate deactylation. For each sample the fluorescence was expressed as a percentage of the mean value of the controls. […] Herein the effects of test compounds are expressed as pIC50 (the negative log value of the IC50-value) (see Table F-2).
Compound,IC50 [1],solubility [2],Enzymatic activity pIC50 C.1 [3],"% metabolism (human, 15 min, 5 μM)","% metabolism (15 min incubation with active microsomes, reference compounds)"
COCC(/C=C/c1ccc(F)cc1)N1CCN(c2ccc(C(=O)Nc3ccccc3N)cn2)CC1 (stereo not drawn) [Compound 1],2510 nM,–,<6,–,–
COc1cc(N)c(Cl)cc1C(=O)NC1CCN(CCCOc2ccc(F)cc2)CC1OC (stereo not drawn) [Cisapride],–,–,–,45%,–
CCCO [propanol],–,–,–,–,25%

# Further lines, with some results ahead:
IC50 [1],solubility [2],Enzymatic activity pIC50 C.1 [3],"% metabolism (human, 15 min, 5 μM)",Compound,"% metabolism (15 min incubation with active microsomes, reference compounds)"
200 nM,3700 µg/mL,4.8,–,Nc1ccccc1NC(=O)c1cnc(N2CCN(C(/C=C/c3ccccc3)CO)CC2)nc1 (stereo not drawn) [Compound 3],–
251 nM,–,<6,–,Nc1ccccc1NC(=O)c1cnc(N2CCN(C(/C=C/c3cccc(F)c3)CO)CC2)nc1 (stereo not drawn) [Compound 2],–
